Test results published in patent US20150094264A1, “USE OF OBESTATIN FOR MUSCLE REGENERATION” (UNIVERSIDADE DE SANTIAGO DE COMPOSTELA, priority 2012, published 2015).

Tests used:
[1] = test system: damaged tibialis anterior of mouse; test: Blood vessels (isolectin positive) per myofiber in damaged tibialis anterior of mouse; type: in vivo, Swiss mice; details: 300 nmol/kg/24 h; 10 days after induction of muscle damage
Method: FIG. 13. Quantification of the blood vessels per myofiber in the tibialis anterior 10 days after the induction of muscle damage and exogenous treatment of obestatin (300 nmol/kg/24 h) or vehicle (PBS). Quantification of the number of blood vessels (immunofluorescence: positivity to isolectin) per myofiber (mean±standard error; *, p<0.005) of sections of the tibialis anterior treated with obestatin (300 nmol/kg/24 h) or PBS (control) 10 days after inducing the damage.
(§1) For the tissue immunofluorescence analysis, frozen sections were obtained which were fixed using a buffered solution of PBS-paraformaldehyde during 15 min, washed, permeabilized and blocked with PBT during 30 min, and later incubated with the corresponding primary antibody (anti-eMHC, anti-laminin antibody) diluted in PBT (1:50) during 12 h at 4° C. After three washes with PBS, the tissue sections were incubated with secondary antibody in PBT (1:1000) during 45 min at 37° C. […] The digital images of the cell culture were acquired with a Leica TCS-SP2 confocal microscope.
(§2) The mice (30 g; n=50) were maintained in 12 h light-darkness cycled with free access to standard diet and water. To induce the muscle damage, the tibialis anterior muscle (TA) was extracted under anaesthesia and subjected to three cycles of damage due to cold contact applying along the length of the muscle a metal bar cooled in liquid nitrogen. […]

ERK 1/2 = test: Activation of ERK 1/2 [pERK1/2(T202/Y204)] by obestatin in L6E9 myoblasts, immunoblot; type: cell-based, rat
Method: (§3) FIG. 1. Activation of regulatory enzymes of mitogenesis and myogenesis by obestatin in L6E9 myoblasts and myotubes. Effect of obestatin on activity of regulatory enzymes of the mitogenic capacity (ERK 1/2), metabolic capacity (Akt and AMPK) and myogenic capacity (Akt and p38). Based on a dose-response study, the saturating dose for the maximum enzymatic activation is established for a concentration of 5 nM. […] Inactivation of AMPK is described in both cell models. The activation profile discovers bimodal characteristics for the action of obestatin: 1.—mitogenic activation in myoblasts; and, 2.—myogenic activation. The immunoblots are representative of 6 independent assays.
(§4) The studies were performed based on the use of L6E9 rat myoblasts which were maintained in growth medium (GM) formed by DMEM (Dulbecco's Modified Eagle Medium) supplemented with 10% fetal bovine serum (FBS), 100 U/mL penicillin, and 100 U/mL streptomycin. For the differentiation, the cells were cultured at 80-100% of confluence in GM and it was replaced for differentiation medium (DM) formed by DMEM supplemented with 2% FBS, 100 U/mL penicillin, and 100 U/mL streptomycin during 6 days.
(§5) The tissue or cell samples were directly lysed in RIPA buffer [Tris-HCl (pH 7.2), 50 mM; NaCl, 150 mM; EDTA, 1 mM; NP-40, 1% (v/v); Sodium deoxycholate, 0.25% (w/v); protease inhibitors (Sigma); phosphatise inhibitors (Sigma)]. The lysates were clarified by centrifugation (14,000×g during 15 min at 4° C.) and the protein concentration was quantified using QuantiPro™ BCA assay kit (Sigma). For immunoblot, equal amounts of protein were loaded which were fractionated in SOS-PAGE gels and transferred to nitrocellulose membranes. The immunoreactive bands were detected by chemiluminescence (Pierce ECL Western Blotting Substrate; Thermo Scientific, Ill., USA).
(§6) To define the mitogenic and myogenic effect of obestatin, the activation capacity was studied of intracellular targets regulating proliferation (ERK1/2) and/or differentiation (p38 and Akt). […]

Akt = test: Activation of Akt [pAkt(S473)] by obestatin in L6E9 myoblasts, immunoblot; type: cell-based, rat
Method: as §3, §4, §5, §6

p38 = test: Activation of p38 [pp38(Y138)] by obestatin in L6E9 myoblasts, immunoblot; type: cell-based, rat
Method: as §3, §4, §5, §6

[2] = test system: damaged tibialis anterior of mouse; test: Immunofluorescence analysis of eMHC expression in damaged tibialis anterior of mouse; type: in vivo, Swiss mice; details: 300 nmol/kg weight; 96 h
Method: FIG. 11. Immufluorescence analysis of the effect of the exogenous administration of obestatin (96 h) on eMHC expression in the damaged tibialis anterior of mouse (animal model). Representative images of eMHC expression by immunofluorescence of sections of the tibialis anterior treated with obestatin (300 nmol/kg/24 h) or PBS (control) 96 h after inducing the damage. The upper panels correspond to staining with anti-eMHC antibody and the lower panels to staining with DAPI.
as §1, §2

[3] = test system: L6E9 cells (rat myoblasts); test: Expression of myogenic markers myogenin and MHC in L6E9 cells in differentiation medium, immunoblot; type: cell-based; details: DM, six days
From the text: FIG. 3. Effect of obestatin on the expression of the myogenic markers myogenin and MHC in L6E9 myoblasts. Effect of the stimulation with different doses of obestatin (0.01-100) on the expression of the myogenic markers myogenin and myosin (MHC) 6 days after the induction of the differentiation by the use of differentiation medium (DM: DMEN+2% FBS). The protein expression levels refer to the levels of myoblasts in growth medium (GM: DMEN+10% FBS), non-differentiated. The data are represented as % with respect to the cell expression in GM (mean±standard error of 6 independent experiments). The evaluation of the degree of expression was performed by immunoblot by the use of the ImageJ64 program (*, p<0.05).
as §4, §5
The L6E9 cells were cultured in DM complemented with different concentrations of obestatin in a range of 0.01-100 nM during six days.

[4] = test system: damaged tibialis anterior of mouse; test: Creatine kinase levels in serum of mice with damaged tibialis anterior; type: in vivo, Swiss mice; details: 300 nmol/kg weight local; 96 h
Method: FIG. 12. Analysis of the creatine kinase levels in serum of mice wherein damage was induced in the tibialis anterior muscle and they were treated locally with obestatin or vehicle (PBS) during 96 h. The creatine kinase levels are expressed as IU/L (International units/litre for the three study groups: control without damage, damage control (PBS) and treatment with obestatin (n=10 per group; mean±standard error; *, #, p<0.005).
The mice (30 g; n=50) were maintained in 12 h light-darkness cycled with free access to standard diet and water. To induce the muscle damage, the tibialis anterior muscle (TA) was extracted under anaesthesia and subjected to three cycles of damage due to cold contact applying along the length of the muscle a metal bar cooled in liquid nitrogen. The damaged muscles were treated locally with obestatin injection (300 nmol/kg weight) or the corresponding vehicle (PBS; control) during the times indicated in 24 h intervals. The animals were assigned to one of the five experimental groups (n=10/group): 1) control group (saline); 2) obestatin group 48 h (obestatin 300 nmol/kg weight/24 h); 3) obestatin group 96 h (obestatin 300 nmol/kg weight/24 h); 4) obestatin group 168 h (obestatin 300 nmol/kg weight/24 h); and, obestatin group 240 h (obestatin 300 nmol/kg weight/24 h). […]

obestatin
capillary density (isolectin-positive blood vessels per myofiber) in relation to vehicle (PBS) [1]: significant increase | obestatin concentration at which activation of ERK 1/2 [pERK1/2(T202/Y204)] was observed (ERK 1/2): 0.1 nM | obestatin concentration at which pERK1/2(T202/Y204) phosphorylation levels reached saturable values (ERK 1/2; dose-response): 5 nM | time post-stimulation of maximum pERK1/2(T202/Y204) levels (ERK 1/2; obestatin 5 nM): 10 min | obestatin concentration at which activation of Akt [pAkt(S473)] was observed (Akt): 0.1 nM | obestatin concentration at which pAkt(S473) phosphorylation levels reached saturable values (Akt; dose-response): 5 nM | time post-stimulation of maximum pAkt(S473) levels (Akt; obestatin 5 nM): 10 min | obestatin concentration at which activation of p38 [pp38(Y138)] was observed (p38): 0.1 nM | obestatin concentration at which pp38(Y138) phosphorylation levels reached saturable values (p38; dose-response): 5 nM | time post-stimulation of maximum pp38(Y138) levels (p38; obestatin 5 nM): 10 min | eMHC expression by immunofluorescence in relation to controls [2]: significantly increases | increase of MHC expression in relation to the control cells ([3]; 5 nM obestatin): −1.6 | increase of myogenin expression in relation to the control cells ([3]; 5 nM obestatin): −1.7 | obestatin concentration of maximum effect on myogenin and MHC expression ([3]; range 0.01-100 nM): 5 nM | creatine kinase serum levels in relation to muscle damage controls (PBS) [4]: significant reduction
